In patent US20110152342A1, “STABILIZED PHARMACEUTICAL COMPOSITION” (priority 2008, published 2011):

Assay: Critical relative humidity of sugar alcohols determined at 37° C.
Format: physicochemical
Conditions: lowest humidity at which an increase in moisture content is observed after 72 hours
Method: As such sugar alcohol, preferably used herein include those having a critical relative humidity as determined at 37° C. of not less than 70% and further preferably used herein are those having a critical relative humidity as determined at 37° C. of not less than 85%. […] For instance, the critical relative humidity can be determined by introducing samples (obtained after drying at 80° C. overnight) of about 1 g each into weighing bottles, placing them in thermo-hygrostats which have been set at the following relative humidity (RH) values: 37° C./40% RH, 37° C./45% RH, 37° C./55% RH, 37° C./65% RH, 37° C./70% RH, 37° C./75% RH, 37° C./80% RH, 37° C./85% RH, 37° C./90% RH, 37° C./95% RH and 37° C./98% RH, respectively (all of the chambers are of the same type: ETAC FX201P), allowing them to stand under such conditions over 72 hours, calculating the increase in the moisture content of each sample at this stage, and determining the lowest humidity at which an increase in the moisture content is observed, the resulting lowest humidity being defined to be the critical relative humidity of the sugar alcohol thus tested. […] The examples of such sugar alcohols having a critical relative humidity, as determined at 37° C., of not less than 70% are erythritol, xylitol, mannitol, maltitol, lactitol, and the like. […]

Row | critical relative humidity | SMILES
1 | not less than 98% | OC[C@@H](O)[C@@H](O)[C@H](O)[C@H](O)CO [mannitol]
2 | 65% | OC[C@@H](O)[C@@H](O)[C@H](O)[C@@H](O)CO [sorbitol]
